Experimental findings from patent US12098119B2, “Compound used as SIRT6 small-molecule allosteric activator and pharmaceutical composition thereof” (Nutshell BioTech (Shanghai) Co., Ltd., priority 2017, dated 2024) are described below.

Each structure is given as a SMILES string.

Holding throughout (type): cell-based
Test [1] deals with H3K9Ac and H3K56Ac in HT29 cells. The test can be described thus: Western blot of SIRT6 deacetylation substrates in HT29 cells. The source says:
(§1) A Western Blot experimental method is used to detect the effect of SIRT6 small molecule allosteric activator as active ingredients in Table 1 and Table 2 for SIRT6 deacetylated active substrates H3K9 AC and H3K56 AC in cell cells.
(§2) HEK-293 T cells, Bel7405 cells, PLC/PFR/5 cells, Bel 7402 cells, HCT116 cells, HT29 cells, SW 480 cells, and HCT116 cells are test objects.
(§3) Step 1: the compound mother liquor (solvent is DMSO) listed in Table 1 and Table 2, the gradient concentration comprising 0.5 μmol/L, 1 μmol/L, 5 μmol/L, 10 μmol/L, 25 μmol/L and 50 μmol/L;
(§4) Step 3: the cell state was good after 24 hours, the fresh culture solution (2 mL) was replaced, and the mother liquor configured above is added to the cell culture solution of the experimental group according to the ratio of 1:1000; the same volume of DMSO (2 ul) is added to the cell culture solution of the control group;
(§5) Step 4: continue to culture for a certain time (12 hours, 24 hours, 48 hours or 60 hours).
(§6) 1) for each group of cells at the end of culture, the culture medium in each well is discarded and washed with 1*PBS once;
(§7) 2) add 150 μl SDS lysate containing bromophenol blue into each well, mix well and transfer to 1.5 ml EP tube respectively;
(§8) 3) store at 95° C. for 5 min, then on ice for 5 min, repeat three times;
(§9) 4) the supernatant is centrifuged at 12000×g for 5 min for Western blot detection.
A general note: In western blotting, separated proteins are transferred to a membrane and probed.

In test [2] the test system is H3K9Ac and H3K56Ac in SW480 cells. The test can be described thus: Western blot of SIRT6 deacetylation substrates in SW480 cells.
Source text: as §1, §2, §3, §4, §5, §6, §7, §8, §9

Test [3] relates to H3K9Ac and H3K56Ac in HCT116 cells. Kind of test: Western blot of SIRT6 deacetylation substrates in HCT116 cells.
Source text: as §1, §2, §3, §4, §5, §6, §7, §8, §9

With `C[C@@H]1COCCN1C(C)(C)C` [SOL-011], the “H3K9Ac and H3K56Ac (Western blot)” value in test [1] (10 μmol/L, 24 hours and 48 hours, FIG. 43) was “down regulated H3K9Ac and H3k56ac”; in test [1] (different concentrations, 48 hours, FIG. 46), “down regulated H3K9Ac and H3k56ac”; in test [2] (10 μmol/L, 24 hours and 48 hours, FIG. 44), “can down regulate H3K9Ac and H3k56ac”; in test [2] (different concentrations, 48 hours, FIG. 47) it was “down regulated H3K9Ac and H3k56ac”; in test [3] (CT116 cells, different concentrations, 48 hours, FIG. 45), “down regulated H3K9Ac and h3k56ac”; in test [3] (HCT116 cells, 10 μmol/L, 24 hours and 48 hours, FIG. 42) it was “down regulated H3K9Ac and H3k56ac”.
